Assay results published in patent US8598128B2, “Fructosylated puerarin, and preparation method and use thereof” (priority 2010, dated 2013).
“Also recorded” adds a separate entry of the source.

What was measured:
[1] = test system: human chronmyelogenors leukemia cell strain K562; test: K562 cell toxicity test (MTT); format: cell-based; conditions: 48 h; for OD value: MTT 490 nm
Method: K-562 cells were cultured in an incubator at 37° C. with 5% CO2 saturated humidity in the RPMI-1640 complete culture medium containing inactivated calf serum with volume fraction of 10%, 100 U penicillin and streptomycin. […] For each drug concentration, 6 complex cases were provided. Put back the culture plate into the cell incubator, after 48 h, add 20 μL MTT (5 mg/mL) solution and continue to incubate it in the incubator for 4 h, then each case was added with triple liquid 100 μL, put it overnight to allow the crystal to fully dissolve. Vibrate it with oscillator for 20 min and determine the light absorption at 490 nm with a fully automatic ELISA instrument, and calculate the average suppression rate, suppression rate (%)=(control group A490−test group A490)/control group A490), the experiment was repeated three times. Relevant analysis and Student t tests in Microsoft Excel 2003 were used, and data are presented in X±SD.

myocardio ischemia mice [2] = test: Heart rate in pituitrin acute myocardial ischemia model; format: in vivo, Sprague-Dawley mice (SD mice)
From the text: (§1) Embodiment 6: […] Pituitrin injection was purchased from Nanjing Xinbai Pharmaceutical Co., Ltd., normal saline injection from Nanjing Xiaoying Pharmaceutical Co., Ltd., and DMSO, PG, and anhydrous ethanol were of chromatographic class. […] The data were presented with, and tested with t. P<0.05 indicates substantial difference, P<0.01 indicates very substantial difference; and P<0.001 indicates extremely substantial difference.

[3] = test system: human breast cancer cell strain MDA-MB-231; test: MDA-MB-231 cell toxicity test (MTT); format: cell-based; conditions: 48 h; for OD value: MTT 490 nm
Method: MDA-MB-231 cells were cultured in an incubator at 37° C. with 5% CO2 saturated humidity in the RPMI-1640 complete culture medium containing inactivated fetal calf serum with volume fraction of 10%, 100 U penicillin and streptomycin. Take MDA-MB-231 cells in logarithmic phase (primary culture bottle) and discard the culture solution. […] Prepare the suspended solution of cells and adjust the cell concentration with appropriate amount of complete culture medium to 3×10^4/mL. Fed the cells into a tissue culture plate 96, with cell suspended liquid of 180 μL in each case, and put the culture plate into a cell incubator (37° C., 5% CO2) for conventional culture. When cells grew to 50%-70%, add drug liquid of different concentration. […] For DMSO solvent control group, add 20 μL of PBS containing […] and for the blank group, add 20 μL of PBS. For each drug concentration, 6 complex cases were provided. Put back the culture plate into the cell incubator, after 48 h, add 20 μL MTT (5 mg/mL) solution and continue to incubate it in the incubator for 4 h, then remove the supernatant and dry it with tissue, add 200 μL DMSO into each case and vibrate it in the rocker without light for 15 min, to allow the crystal to fully dissolve. Determine the light absorption at 490 nm with a fully automatic ELISA instrument, and calculate the average suppression rate, suppression rate (%)=(control group A490−test group A490)/control group A490), the experiment was repeated three times. Relevant analysis and Student t tests in Microsoft Excel 2003 were used, and data are presented in X±SD.

myocardio ischemia mice [4] = test: T wave amplitude variation in pituitrin acute myocardial ischemia model; format: in vivo, Sprague-Dawley mice (SD mice)
From the text: as §1

Compound: O=c1c(-c2ccc(O)cc2)coc2c([C@@H]3O[C@H](CO[C@]4(CO)O[C@H](CO)[C@@H](O)[C@@H]4O)[C@@H](O)[C@H](O)[C@H]3O)c(O)ccc12 [monofructosyl-β(2,6)-puerarin]
- Average suppression rate ([1]; 1 μmol/L): 7.85%
- OD value ([1]; 1 μmol/L): 0.950 ± 0.041
- Average suppression rate ([1]; 5 μmol/L): 7.53%
- OD value ([1]; 5 μmol/L): 0.950 ± 0.018
- Average suppression rate ([1]; 10 μmol/L): 6.76%
- OD value ([1]; 10 μmol/L): 0.958 ± 0.022
- Average suppression rate ([1]; 20 μmol/L): 6.16%
- OD value ([1]; 20 μmol/L): 0.963 ± 0.055
- Average suppression rate ([1]; 50 μmol/L): 11.14%
- OD value ([1]; 50 μmol/L): 0.913 ± 0.048
- Average suppression rate ([1]; 100 μmol/L): 16.41%
- OD value ([1]; 100 μmol/L): 0.858 ± 0.028
- Average suppression rate ([1]; 150 μmol/L): 29.84%
- OD value ([1]; 150 μmol/L): 0.720 ± 0.055
- Average suppression rate ([1]; 200 μmol/L): 46.41%
- OD value ([1]; 200 μmol/L): 0.550 ± 0.086
- Heart rate (myocardio ischemia mice [2]; 12.5 mg/kg, 5 s): 433 ± 63 time · min^−1
- Heart rate (myocardio ischemia mice [2]; 12.5 mg/kg, 10 s): 416 ± 79 time · min^−1
- Heart rate (myocardio ischemia mice [2]; 12.5 mg/kg, 15 s): 411 ± 75 time · min^−1
- Heart rate (myocardio ischemia mice [2]; 12.5 mg/kg, 30 s): 389 ± 72 time · min^−1
- Heart rate (myocardio ischemia mice [2]; 12.5 mg/kg, 1 min): 347 ± 71 time · min^−1
- Heart rate (myocardio ischemia mice [2]; 12.5 mg/kg, 2 min): 339 ± 57 time · min^−1
- Heart rate (myocardio ischemia mice [2]; 12.5 mg/kg, 5 min): 349 ± 50 time · min^−1
- Heart rate (myocardio ischemia mice [2]; 12.5 mg/kg, 10 min): 395 ± 45 time · min^−1
- Heart rate (myocardio ischemia mice [2]; 12.5 mg/kg, Normal): 403 ± 54 time · min^−1
- Heart rate (myocardio ischemia mice [2]; 25 mg/kg, 5 s): 476 ± 65 time · min^−1
- Heart rate (myocardio ischemia mice [2]; 25 mg/kg, 10 s): 442 ± 81 time · min^−1
- Heart rate (myocardio ischemia mice [2]; 25 mg/kg, 15 s): 405 ± 88 time · min^−1
- Heart rate (myocardio ischemia mice [2]; 25 mg/kg, 30 s): 428 ± 65 time · min^−1
- Heart rate (myocardio ischemia mice [2]; 25 mg/kg, 1 min): 403 ± 54 time · min^−1
- Heart rate (myocardio ischemia mice [2]; 25 mg/kg, 2 min): 386 ± 41 time · min^−1
- Heart rate (myocardio ischemia mice [2]; 25 mg/kg, 5 min): 375 ± 37 time · min^−1
- Heart rate (myocardio ischemia mice [2]; 25 mg/kg, 10 min): 420 ± 43 time · min^−1
- Heart rate (myocardio ischemia mice [2]; 25 mg/kg, Normal): 474 ± 68 time · min^−1
- Heart rate (myocardio ischemia mice [2]; 50 mg/kg, 5 s): 485 ± 95 time · min^−1
- Heart rate (myocardio ischemia mice [2]; 50 mg/kg, 10 s): 423 ± 84 time · min^−1
- Heart rate (myocardio ischemia mice [2]; 50 mg/kg, 15 s): 420 ± 76 time · min^−1
- Heart rate (myocardio ischemia mice [2]; 50 mg/kg, 30 s): 378 ± 34 time · min^−1
- Heart rate (myocardio ischemia mice [2]; 50 mg/kg, 1 min): 327 ± 89 time · min^−1
- Heart rate (myocardio ischemia mice [2]; 50 mg/kg, 2 min): 339 ± 45 time · min^−1
- Heart rate (myocardio ischemia mice [2]; 50 mg/kg, 5 min): 347 ± 55 time · min^−1
- Heart rate (myocardio ischemia mice [2]; 50 mg/kg, 10 min): 435 ± 72 time · min^−1
- Heart rate (myocardio ischemia mice [2]; 50 mg/kg, Normal): 483 ± 91 time · min^−1
- effect on heart rate restoration in words (myocardio ischemia mice [2]; 12.5, 25 and 50 mg/kg): has certain therapy effect on the heart disorder caused by myocardial ischemia; also recorded: has certain therapy effect on the heart disorder caused by myocardio ischemia
- Average suppression rate ([3]; 0.5 μmol/L): 3.68%
- OD value ([3]; 0.5 μmol/L): 0.676 ± 0.021
- Average suppression rate ([3]; 1 μmol/L): 5.02%
- OD value ([3]; 1 μmol/L): 0.666 ± 0.069
- Average suppression rate ([3]; 5 μmol/L): 3.47%
- OD value ([3]; 5 μmol/L): 0.677 ± 0.081
- Average suppression rate ([3]; 10 μmol/L): 4.20%
- OD value ([3]; 10 μmol/L): 0.672 ± 0.085
- Average suppression rate ([3]; 50 μmol/L): 20.17%
- OD value ([3]; 50 μmol/L): 0.560 ± 0.062
- Average suppression rate ([3]; 100 μmol/L): 28.70%
- OD value ([3]; 100 μmol/L): 0.500 ± 0.068
- Average suppression rate ([3]; 150 μmol/L): 44.04%
- OD value ([3]; 150 μmol/L): 0.392 ± 0.041
- Average suppression rate ([3]; 200 μmol/L): 59.42%
- OD value ([3]; 200 μmol/L): 0.285 ± 0.067
- T wave amplitude variation (myocardio ischemia mice [4]; 12.5 mg/kg, 15 s after Pit): 0.082 ± 0.060 mv
- T wave amplitude variation (myocardio ischemia mice [4]; 12.5 mg/kg, 30 s after Pit): 0.097 ± 0.084 mv
- T wave amplitude variation (myocardio ischemia mice [4]; 12.5 mg/kg, 1 min after Pit): 0.051 ± 0.034 mv
- T wave amplitude variation (myocardio ischemia mice [4]; 12.5 mg/kg, 2 min after Pit): 0.102 ± 0.071 mv
- T wave amplitude variation (myocardio ischemia mice [4]; 12.5 mg/kg, 5 min after Pit): 0.069 ± 0.040 mv
- T wave amplitude variation (myocardio ischemia mice [4]; 12.5 mg/kg, 10 min after Pit): 0.068 ± 0.038 mv
- T wave amplitude variation (myocardio ischemia mice [4]; 25 mg/kg, 15 s after Pit): 0.053 ± 0.027 mv
- T wave amplitude variation (myocardio ischemia mice [4]; 25 mg/kg, 30 s after Pit): 0.105 ± 0.076 mv
- T wave amplitude variation (myocardio ischemia mice [4]; 25 mg/kg, 1 min after Pit): 0.116 ± 0.088 mv
- T wave amplitude variation (myocardio ischemia mice [4]; 25 mg/kg, 2 min after Pit): 0.112 ± 0.087 mv
- T wave amplitude variation (myocardio ischemia mice [4]; 25 mg/kg, 5 min after Pit): 0.067 ± 0.038 mv
- T wave amplitude variation (myocardio ischemia mice [4]; 25 mg/kg, 10 min after Pit): 0.054 ± 0.038 mv
- T wave amplitude variation (myocardio ischemia mice [4]; 50 mg/kg, 15 s after Pit): 0.092 ± 0.067 mv
- T wave amplitude variation (myocardio ischemia mice [4]; 50 mg/kg, 30 s after Pit): 0.118 ± 0.087 mv
- T wave amplitude variation (myocardio ischemia mice [4]; 50 mg/kg, 1 min after Pit): 0.109 ± 0.084 mv
- T wave amplitude variation (myocardio ischemia mice [4]; 50 mg/kg, 2 min after Pit): 0.106 ± 0.091 mv
- T wave amplitude variation (myocardio ischemia mice [4]; 50 mg/kg, 5 min after Pit): 0.080 ± 0.070 mv
- T wave amplitude variation (myocardio ischemia mice [4]; 50 mg/kg, 10 min after Pit): 0.082 ± 0.058 mv
- effect against myocardial ischemia (T wave) in words (myocardio ischemia mice [4]; 12.5, 25 and 50 mg/kg, compared with puerarin): can better resist myocardial ischemia than puerarin; also recorded: has better effect to resist myocardio ischemia than puerarin
